The values below come from patent publication US10745346B2, “Agonists of protein tyrosine phosphatase SHP-1” (priority 2015, dated 2020).

The structures appear in SMILES notation. A value given as a limit tells only on which side of the number the result lay.

The test system of assay [1] is PLC5 cells (a hepatocellular carcinoma cell line). Kind of assay: Cytotoxicity, MTT cell viability assay. The settings on record: 72 h exposure. The assay is classed as cell-based. Here is the method:
PLC5 cells (a hepatocellular carcinoma cell line) were seeded at 5×10^3 cells per well in 96-well plates. Then, cells were exposed to SC derivatives at the indicated doses for 72 h. After that, cells were incubated with MTT (1 mg/ml) (Sigma-Aldrich, St. Louis, Mo.) for 2 h at 37° C. Cell viability was then assessed by measuring the absorbance at 570 nm using a microplate reader.
On the technique in general: Formazan colour is commonly taken as a measure of viable cells.

For assay [2], the target named is Recombinant SHP-1 protein (Homo sapiens, UniProt P29350). Kind of assay: SHP-1 phosphatase activity assay (RediPlate 96 EnzChek Tyrosine Phosphatase Assay kit). The assay is classed as biochemical. The settings on record: SC derivatives at 1 μM for 2 hr; recombinant SHP-1 25 ng; control DMSO = 100; mean±SD (N=3). Here is the method:
Effects of SC Derivatives on Phosphatase Activity in Recombinant SHP-1 RediPlate 96 EnzChek Tyrosine Phosphatase Assay kit (R-22067) was used for SHP-1 activity assay (Molecular Probes). Recombinant SHP-1 protein (25 ng) was reacted with SC derivatives at 1 μM for 2 hr. Then the SHP-1 phosphatase activity assay was performed according to the user's manual and the absorbance was measured at 465 nm. The control group was DMSO, which functioned as the solvent of the SC derivatives. The values were expressed by mean±SD (N=3).

Sequence of Recombinant SHP-1 protein (P29350 whole entry): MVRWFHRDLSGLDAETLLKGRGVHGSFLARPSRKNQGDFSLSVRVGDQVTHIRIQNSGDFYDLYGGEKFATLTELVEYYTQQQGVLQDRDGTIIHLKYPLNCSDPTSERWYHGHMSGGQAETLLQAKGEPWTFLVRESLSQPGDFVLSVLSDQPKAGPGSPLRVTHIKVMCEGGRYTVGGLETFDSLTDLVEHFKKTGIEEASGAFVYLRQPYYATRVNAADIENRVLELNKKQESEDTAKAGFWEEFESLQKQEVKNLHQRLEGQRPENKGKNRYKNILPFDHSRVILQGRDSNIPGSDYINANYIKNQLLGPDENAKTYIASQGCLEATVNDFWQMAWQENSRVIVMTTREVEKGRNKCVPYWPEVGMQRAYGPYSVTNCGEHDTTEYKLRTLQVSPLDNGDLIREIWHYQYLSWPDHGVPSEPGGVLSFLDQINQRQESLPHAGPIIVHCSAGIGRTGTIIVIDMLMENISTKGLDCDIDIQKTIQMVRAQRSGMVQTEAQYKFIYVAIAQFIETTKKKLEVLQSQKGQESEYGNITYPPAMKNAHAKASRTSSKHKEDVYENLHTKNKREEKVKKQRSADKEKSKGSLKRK

By IC50 is commonly meant the concentration that inhibits the measured activity by half. Low values mean higher potency, high ones lower potency. In assay [1], `N#Cc1ccc(Oc2ccc(F)c(NC(=O)Nc3ccc(F)c(C(F)(F)F)c3)c2)cc1` [compound 145, 1-(5-(4-cyanophenoxy)-2-fluorophenyl)-3-(4-fluoro-3-(trifluoromethyl)phenyl)urea] gave an IC50 of 850 nM. Further, in assay [2], the “SHP-1 Activity (% of control)” value is on record as 168.15 ± 1.97 % of control.

Turning to `N#CCc1ccc(NC(=O)Nc2cc(Oc3ccc(C#N)cc3)ccc2F)cc1` [compound 146, 1-(4-(cyanomethyl)phenyl)-3-(5-(4-cyanophenoxy)-2-fluorophenyl)urea], the IC50 in assay [1] stood at 2590 nM. In addition, the “SHP-1 Activity (% of control)” value in assay [2] is reported as 139.68 ± 6.63 % of control.

`N#Cc1ccc(Oc2cc(NC(=O)Nc3cc(C(F)(F)F)cc(C(F)(F)F)c3)ccc2Cl)cc1` [compound 148, 1-(3,5-bis(trifluoromethyl)phenyl)-3-(4-chloro-3-(4-cyanophenoxy)phenyl) urea] showed an IC50 in assay [1] of 220 nM. Moreover, in assay [2], the “SHP-1 Activity (% of control)” value was 363.95 ± 18.11 % of control.

In assay [1], `N#CCc1ccc(NC(=O)Nc2ccc(Cl)c(Oc3ccc(C#N)cc3)c2)cc1` [compound 149, 1-(4-chloro-3-(4-cyanophenoxy)phenyl)-3-(4-(cyanomethyl)phenyl)urea] showed an IC50 of 1380 nM. The “SHP-1 Activity (% of control)” value in assay [2] is reported as 140.90 ± 6.65 % of control.

Regarding `C#Cc1cccc(NC(=O)Nc2ccc(F)c(Oc3ccc(C#N)cc3)c2)c1` [compound 150, 1-(3-(4-cyanophenoxy)-4-fluorophenyl)-3-(3-ethynylphenyl)urea], the IC50 in assay [1] was found to be 2230 nM. In addition, the “SHP-1 Activity (% of control)” value in assay [2] was 129.59 ± 59 % of control.

Turning to `N#Cc1ccc(Oc2cc(NC(=O)Nc3cccc(C(F)(F)F)c3)ccc2F)cc1` [compound 151, 1-(3-(4-cyanophenoxy)-4-fluorophenyl)-3-(3-(trifluoromethyl)phenyl)urea], half-maximal inhibition in assay [1] (IC50) was put at 590 nM. In addition, the “SHP-1 Activity (% of control)” value in assay [2] is 136.00 ± 9.09 % of control.

The molecule `N#Cc1ccc(Oc2cc(NC(=O)Nc3cc(C(F)(F)F)cc(C(F)(F)F)c3)ccc2F)cc1` [compound 152, 1-(3,5-bis(trifluoromethyl)phenyl)-3-(3-(4-cyanophenoxy)-4-fluorophenyl) urea] had an IC50 in assay [1] of 340 nM. The “SHP-1 Activity (% of control)” value in assay [2] is reported as 336.99 ± 50.76 % of control.

As to `N#CCc1ccc(NC(=O)Nc2ccc(F)c(Oc3ccc(C#N)cc3)c2)cc1` [compound 153, 1-(4-(cyanomethyl)phenyl)-3-(3-(4-cyanophenoxy)-4-fluorophenyl)urea], the IC50 in assay [1] was 1830 nM. Moreover, the “SHP-1 Activity (% of control)” value in assay [2] is reported as 135.54 ± 5.11 % of control.

In the case of `N#Cc1ccc(Oc2cc(NC(=O)Nc3ccc(F)c(C(F)(F)F)c3)ccc2F)cc1` [compound 154, 1-(3-(4-cyanophenoxy)-4-fluorophenyl)-3-(4-fluoro-3-(trifluoromethyl)phenyl)urea], in assay [1], half-maximal inhibition (IC50) required 620 nM. Further, in assay [2], the “SHP-1 Activity (% of control)” value is 115.12 ± 3.84 % of control.

As for `N#Cc1ccc(Oc2ccc3c(c2)N(C(=O)Nc2ccc(F)c(C(F)(F)F)c2)CCO3)cc1` [compound 156, 6-(4-cyanophenoxy)-N-(4-fluoro-3-(trifluoromethyl)phenyl)-2H-benzo[b][1,4]oxazine-4(3H)-carboxamide], in assay [1], the IC50 was found to be 1870 nM. Besides, the “SHP-1 Activity (% of control)” value in assay [2] is 112.47 ± 7.98 % of control.

In assay [1], `N#Cc1ccc(Oc2ccc3c(c2)N(C(=O)Nc2ccc(Cl)c(C(F)(F)F)c2)CCO3)cc1` [compound 157, N-(4-chloro-3-(trifluoromethyl)phenyl)-6-(4-cyanophenoxy)-2H-benzo[b][1,4]oxazine-4(3H)-carboxamide] came in with an IC50 of 1760 nM. Also, the “SHP-1 Activity (% of control)” value in assay [2] was 106.27 ± 6.28 % of control.

`N#Cc1ccc(Oc2ccc3c(c2)N(C(=O)Nc2cc(C(F)(F)F)cc(C(F)(F)F)c2)CCO3)cc1` [compound 158, N-(3,5-bis(trifluoromethyl)phenyl)-6-(4-cyanophenoxy)-2H-benzo[b][1,4]oxazine-4(3H)-carboxamide]: the IC50 in assay [1] turned out to be 3310 nM. Also, the “SHP-1 Activity (% of control)” value in assay [2] is recorded as 102.07 ± 3.47 % of control.

`N#Cc1ccc(Oc2ccc3c(c2)N(C(=O)Nc2cccc(C(F)(F)F)c2)CCO3)cc1` [compound 159, 6-(4-cyanophenoxy)-N-(3-(trifluoromethyl)phenyl)-2H-benzo[b][1,4]oxazine-4(3H)-carboxamide]: half-maximal inhibition in assay [1] (IC50) was put at 2560 nM. The “SHP-1 Activity (% of control)” value in assay [2] was 98.04 ± 8.80 % of control.

In the case of `N#CCc1ccc(NC(=O)N2CCOc3ccc(Oc4ccc(C#N)cc4)cc32)cc1` [compound 160, N-(4-(cyanomethyl)phenyl)-6-(4-cyanophenoxy)-2H-benzo[b][1,4]oxazine-4(3H)-carboxamide], the IC50 in assay [1] was 5130 nM. The “SHP-1 Activity (% of control)” value in assay [2] is on record as 116.47 ± 6.60 % of control.

With `C#Cc1cccc(NC(=O)N2CCOc3ccc(Oc4ccc(C#N)cc4)cc32)c1` [compound 161, 6-(4-cyanophenoxy)-N-(3-ethynylphenyl)-2H-benzo[b][1,4]oxazine-4(3H)-carboxamide], the IC50 in assay [1] was above 10000 nM. In addition, the “SHP-1 Activity (% of control)” value in assay [2] is given as 140.58 ± 11.39 % of control.

Molecule `C#Cc1cccc(NC(=O)N2CCOc3cc(Oc4ccc(C#N)cc4)ccc32)c1` [compound 162, 7-(4-cyanophenoxy)-N-(3-ethynylphenyl)-2H-benzo[b][1,4]oxazine-4(3H)-carboxamide] showed an IC50 in assay [1] of 3060 nM. Moreover, the “SHP-1 Activity (% of control)” value in assay [2] was 141.39 ± 15.44 % of control.

As to `N#Cc1ccc(Oc2ccc3c(c2)OCCN3C(=O)Nc2cccc(C(F)(F)F)c2)cc1` [compound 163, 7-(4-cyanophenoxy)-N-(3-(trifluoromethyl)phenyl)-2H-benzo[b][1,4]oxazine-4(3H)-carboxamide], the IC50 in assay [1] was determined as 2510 nM. The “SHP-1 Activity (% of control)” value in assay [2] is given as 142.36 ± 2.16 % of control.

In the case of `N#Cc1ccc(Oc2ccc3c(c2)OCCN3C(=O)Nc2cc(C(F)(F)F)cc(C(F)(F)F)c2)cc1` [compound 164, N-(3,5-bis(trifluoromethyl)phenyl)-7-(4-cyanophenoxy)-2H-benzo[b][1,4]oxazine-4(3H)-carboxamide], the IC50 in assay [1] is above 10000 nM. Besides, the “SHP-1 Activity (% of control)” value in assay [2] is 83.70 ± 10.90 % of control.

On to `N#Cc1ccc(Oc2ccc3c(c2)OCCN3C(=O)Nc2ccc(Cl)c(C(F)(F)F)c2)cc1` [compound 165, N-(4-chloro-3-(trifluoromethyl)phenyl)-7-(4-cyanophenoxy)-2H-benzo[b][1,4]oxazine-4(3H)-carboxamide], for which the IC50 in assay [1] was above 10000 nM. Also, in assay [2], the “SHP-1 Activity (% of control)” value is 169.27 ± 1.19 % of control.

In assay [1], `N#Cc1ccc(Oc2ccc3c(c2)OCCN3C(=O)Nc2ccc(F)c(C(F)(F)F)c2)cc1` [compound 166, 7-(4-cyanophenoxy)-N-(4-fluoro-3-(trifluoromethyl)phenyl)-2H-benzo[b][1,4]oxazine-4(3H)-carboxamide] showed an IC50 of 1320 nM. Further, the “SHP-1 Activity (% of control)” value in assay [2] was 51.89 ± 8.16 % of control.

With `N#CCc1ccc(NC(=O)N2CCOc3cc(Oc4ccc(C#N)cc4)ccc32)cc1` [compound 167, N-(4-(cyanomethyl)phenyl)-7-(4-cyanophenoxy)-2H-benzo[b][1,4]oxazine-4(3H)-carboxamide], in assay [1], the IC50 turned out to be 2550 nM. The “SHP-1 Activity (% of control)” value in assay [2] is recorded as 110.58 ± 10.14 % of control.
